Legend:
[1] = test system: HCT116 human colorectal carcinoma cell line; test: MTT cytotoxicity assay, HCT116; settings: HCT-116, 48 h, read-out: IC50 HCT-116 Cell Line
Protocol: (§2) At the end of this period, supernatants were removed, and 100 μL DMSO was added to each well to solubilize the formazan crystals. The absorbance of the solution was determined on an Infinite M1000 plate reader (Tecan, Mannedorf, Switzerland) at a wavelength of 550 nm with background subtraction at 630 nm.

[2] = test system: A375 human melanoma cell line; test: MTT cytotoxicity assay, A375; settings: A-375, 48 h, read-out: IC50 A375 Cell Line
Protocol: as §2

[3] = test system: peripheral blood mononuclear cells (PBMCs); test: MTT cytotoxicity assay, PBMCs (tumor selectivity); settings: Homo sapiens, PBMC, 48 h, read-out: IC50 PBMCs
Protocol: as §2

[4] = test system: Jurkat human leukemic T-cells; test: MTT cytotoxicity assay, Jurkat cells (tumor selectivity); settings: 48 h, read-out: IC50 Jurkat Cells
Protocol: as §2

[5] = test system: A549 human lung adenocarcinoma cell line; test: MTT cytotoxicity assay, A549; settings: A549, 48 h, read-out: IC50 A549 Cell Line
Protocol: as §2

EGFR = target: T1, EGFR (Homo sapiens, UniProt P00533); test: Kinase profiling assay (ADP-Glo), EGFR; type: biochemical; settings: 1 h, room temperature
T1 construct: purchased Promega Corporation
Protocol: (§1) The kinase profiling assay protocol was applied according to the manufacturer’s instructions (Promega Corporation, Madison, WI, USA) with modification. […] Then, the reaction of the kinase was performed using 2 µL of compound solution at varying concentrations (0.1–100 µM), 4 µL of kinase working stock, and 4 µL of ATP/substrate working stock in the 384-well plate. After 1 h of incubation at room temperature, the activity of kinase was detected using ADP-Glo kinase assay (Promega Corporation, Madison, WI, USA), and kinase inhibitory activity of compounds in dose–response mode was measured by an Infinite M1000 luminescence plate reader (Tecan, Groding, Austria).

KDR = target: T2, KDR (Homo sapiens, UniProt P35968); test: Kinase profiling assay (ADP-Glo), KDR; type: biochemical; settings: 1 h, room temperature
T2 construct: purchased Promega Corporation
Protocol: as §1

PDGFRα = target: T3, PDGFRα (Homo sapiens, UniProt P16234); test: Kinase profiling assay (ADP-Glo), PDGFRα; type: biochemical; settings: 1 h, room temperature
T3 construct: purchased Promega Corporation
Protocol: as §1

IGF1R = target: T4, IGF1R (Homo sapiens, UniProt P08069); test: Kinase profiling assay (ADP-Glo), IGF1R; type: biochemical; settings: 1 h, room temperature
T4 construct: purchased Promega Corporation
T4 sequence (P08069 31-1367): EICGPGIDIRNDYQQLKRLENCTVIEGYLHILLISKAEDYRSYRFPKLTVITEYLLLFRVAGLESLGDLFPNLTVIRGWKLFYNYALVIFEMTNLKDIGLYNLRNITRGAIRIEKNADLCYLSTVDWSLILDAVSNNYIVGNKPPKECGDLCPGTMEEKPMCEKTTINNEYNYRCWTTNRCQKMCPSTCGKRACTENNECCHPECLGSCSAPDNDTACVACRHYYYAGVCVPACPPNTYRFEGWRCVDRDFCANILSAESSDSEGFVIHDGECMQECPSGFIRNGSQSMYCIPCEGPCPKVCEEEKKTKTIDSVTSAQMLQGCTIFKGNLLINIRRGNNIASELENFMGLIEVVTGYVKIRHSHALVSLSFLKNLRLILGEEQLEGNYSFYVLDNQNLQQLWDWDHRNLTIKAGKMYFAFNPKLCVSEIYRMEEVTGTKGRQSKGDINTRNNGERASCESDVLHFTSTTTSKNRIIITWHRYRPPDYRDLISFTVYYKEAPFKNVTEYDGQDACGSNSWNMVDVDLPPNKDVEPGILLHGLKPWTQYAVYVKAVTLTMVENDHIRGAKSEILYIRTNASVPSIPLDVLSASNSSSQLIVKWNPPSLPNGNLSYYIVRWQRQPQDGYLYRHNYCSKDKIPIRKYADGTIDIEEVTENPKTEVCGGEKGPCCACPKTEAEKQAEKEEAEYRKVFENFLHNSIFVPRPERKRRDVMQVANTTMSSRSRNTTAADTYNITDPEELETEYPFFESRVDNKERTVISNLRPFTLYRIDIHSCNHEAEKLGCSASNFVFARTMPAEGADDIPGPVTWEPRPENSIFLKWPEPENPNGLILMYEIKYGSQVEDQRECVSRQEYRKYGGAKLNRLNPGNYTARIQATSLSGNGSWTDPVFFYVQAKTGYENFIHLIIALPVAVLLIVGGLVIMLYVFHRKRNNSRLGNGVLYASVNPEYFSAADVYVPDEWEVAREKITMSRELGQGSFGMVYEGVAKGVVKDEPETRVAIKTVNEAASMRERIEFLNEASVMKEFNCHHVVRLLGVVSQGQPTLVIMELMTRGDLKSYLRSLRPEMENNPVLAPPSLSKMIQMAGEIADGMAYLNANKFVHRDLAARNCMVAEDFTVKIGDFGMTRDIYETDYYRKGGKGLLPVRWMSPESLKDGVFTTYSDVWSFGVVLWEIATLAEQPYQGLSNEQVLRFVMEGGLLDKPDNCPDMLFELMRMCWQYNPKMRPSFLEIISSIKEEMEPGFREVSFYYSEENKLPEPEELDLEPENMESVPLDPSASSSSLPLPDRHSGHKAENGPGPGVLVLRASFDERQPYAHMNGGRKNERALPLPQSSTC
Protocol: as §1

PDGFRβ = target: T5, PDGFRβ (Homo sapiens, UniProt P09619); test: Kinase profiling assay (ADP-Glo), PDGFRβ; type: biochemical; settings: 1 h, room temperature
T5 construct: purchased Promega Corporation
T5 sequence (P09619 33-1106): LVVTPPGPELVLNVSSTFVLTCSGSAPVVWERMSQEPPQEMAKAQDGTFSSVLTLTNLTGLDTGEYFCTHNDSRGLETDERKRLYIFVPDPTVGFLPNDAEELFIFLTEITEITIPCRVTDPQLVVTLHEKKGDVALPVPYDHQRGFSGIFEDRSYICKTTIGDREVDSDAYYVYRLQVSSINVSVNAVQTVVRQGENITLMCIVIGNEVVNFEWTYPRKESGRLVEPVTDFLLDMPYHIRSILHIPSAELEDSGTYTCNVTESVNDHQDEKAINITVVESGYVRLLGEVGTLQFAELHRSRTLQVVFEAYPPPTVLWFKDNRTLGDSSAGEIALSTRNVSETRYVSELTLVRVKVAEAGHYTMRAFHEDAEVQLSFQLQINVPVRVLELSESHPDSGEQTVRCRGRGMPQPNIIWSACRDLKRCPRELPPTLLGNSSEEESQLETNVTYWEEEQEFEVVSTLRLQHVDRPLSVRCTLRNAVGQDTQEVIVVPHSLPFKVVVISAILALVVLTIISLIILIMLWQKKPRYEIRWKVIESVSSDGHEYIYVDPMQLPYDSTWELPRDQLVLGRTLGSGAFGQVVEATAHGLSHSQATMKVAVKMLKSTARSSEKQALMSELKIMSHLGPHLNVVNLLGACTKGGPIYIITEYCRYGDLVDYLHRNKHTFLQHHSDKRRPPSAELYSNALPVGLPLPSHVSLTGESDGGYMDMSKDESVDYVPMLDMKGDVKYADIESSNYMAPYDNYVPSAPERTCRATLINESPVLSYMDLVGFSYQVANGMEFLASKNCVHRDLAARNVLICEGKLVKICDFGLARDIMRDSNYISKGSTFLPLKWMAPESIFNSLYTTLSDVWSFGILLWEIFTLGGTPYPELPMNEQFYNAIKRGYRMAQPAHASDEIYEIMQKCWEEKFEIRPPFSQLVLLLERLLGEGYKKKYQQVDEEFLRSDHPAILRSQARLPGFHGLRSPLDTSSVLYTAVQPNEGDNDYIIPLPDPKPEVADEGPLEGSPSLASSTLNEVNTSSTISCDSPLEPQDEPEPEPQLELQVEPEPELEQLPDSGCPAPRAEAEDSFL
Protocol: as §1

COX-1 = target: T6, COX-1 (Ovis aries, UniProt P05979); test: In vitro COX inhibition assay (COX (ovine/human) inhibitor screening kit), COX-1
T6 sequence (P05979 25-600): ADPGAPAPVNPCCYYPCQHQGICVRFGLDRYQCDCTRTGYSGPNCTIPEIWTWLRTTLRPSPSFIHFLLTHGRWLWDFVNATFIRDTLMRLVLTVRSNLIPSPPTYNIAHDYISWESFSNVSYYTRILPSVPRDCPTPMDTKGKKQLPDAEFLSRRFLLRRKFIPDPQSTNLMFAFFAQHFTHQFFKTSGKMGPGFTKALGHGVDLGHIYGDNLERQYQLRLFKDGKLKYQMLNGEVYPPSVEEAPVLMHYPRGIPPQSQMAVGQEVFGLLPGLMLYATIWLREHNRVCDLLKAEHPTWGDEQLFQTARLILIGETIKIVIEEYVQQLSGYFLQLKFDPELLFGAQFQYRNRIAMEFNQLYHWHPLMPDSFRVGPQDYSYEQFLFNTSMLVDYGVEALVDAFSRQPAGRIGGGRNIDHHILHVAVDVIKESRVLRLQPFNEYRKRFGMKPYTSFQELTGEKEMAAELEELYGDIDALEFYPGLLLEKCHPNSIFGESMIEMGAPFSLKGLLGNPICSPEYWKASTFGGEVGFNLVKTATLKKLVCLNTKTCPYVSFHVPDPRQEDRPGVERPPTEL
Protocol: Briefly, COX reactions were performed. […] The prostaglandins were quantified by ELISA.

HER2 = target: T7, HER2 (Homo sapiens, UniProt P04626); test: Kinase profiling assay (ADP-Glo), HER2; type: biochemical; settings: 1 h, room temperature
T7 construct: purchased Promega Corporation
T7 sequence (P04626 23-1255): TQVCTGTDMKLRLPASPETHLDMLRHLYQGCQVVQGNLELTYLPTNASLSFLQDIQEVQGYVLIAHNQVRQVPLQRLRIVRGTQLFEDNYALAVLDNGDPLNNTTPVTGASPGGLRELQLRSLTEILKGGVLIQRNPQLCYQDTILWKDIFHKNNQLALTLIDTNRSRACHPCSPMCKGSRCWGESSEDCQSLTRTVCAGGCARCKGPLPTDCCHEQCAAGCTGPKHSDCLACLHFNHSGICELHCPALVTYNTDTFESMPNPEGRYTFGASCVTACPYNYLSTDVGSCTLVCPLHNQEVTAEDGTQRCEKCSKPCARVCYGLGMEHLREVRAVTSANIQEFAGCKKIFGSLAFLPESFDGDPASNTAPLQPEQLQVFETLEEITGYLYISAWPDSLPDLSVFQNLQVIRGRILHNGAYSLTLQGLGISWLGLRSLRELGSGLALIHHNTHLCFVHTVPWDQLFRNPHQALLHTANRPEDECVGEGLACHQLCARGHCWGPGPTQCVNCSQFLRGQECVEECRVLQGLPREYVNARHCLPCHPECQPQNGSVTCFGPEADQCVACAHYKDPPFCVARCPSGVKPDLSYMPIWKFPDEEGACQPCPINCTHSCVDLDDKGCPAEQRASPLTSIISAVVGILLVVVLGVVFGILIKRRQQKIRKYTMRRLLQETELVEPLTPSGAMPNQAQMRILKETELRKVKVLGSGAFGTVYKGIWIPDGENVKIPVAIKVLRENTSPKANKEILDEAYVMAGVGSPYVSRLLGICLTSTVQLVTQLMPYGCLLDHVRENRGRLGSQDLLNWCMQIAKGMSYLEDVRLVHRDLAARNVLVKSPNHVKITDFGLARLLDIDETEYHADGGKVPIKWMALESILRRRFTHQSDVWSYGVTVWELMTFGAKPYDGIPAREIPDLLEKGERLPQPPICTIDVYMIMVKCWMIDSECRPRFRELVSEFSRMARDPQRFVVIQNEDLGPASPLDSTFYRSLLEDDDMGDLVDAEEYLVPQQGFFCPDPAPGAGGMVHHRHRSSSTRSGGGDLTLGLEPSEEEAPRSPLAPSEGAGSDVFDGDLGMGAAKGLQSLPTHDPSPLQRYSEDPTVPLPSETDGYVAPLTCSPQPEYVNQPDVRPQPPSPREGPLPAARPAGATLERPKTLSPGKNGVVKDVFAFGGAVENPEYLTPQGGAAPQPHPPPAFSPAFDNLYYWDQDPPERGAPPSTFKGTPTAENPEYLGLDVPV
Protocol: as §1

HCT116 cells = test: Detection of cell death, Hoechst 33342/annexin V/ethidium homodimer III staining; type: cell-based, human; settings: 10 μM, 12 h
Protocol: The cells were then briefly washed twice with 1× binding buffer, a staining solution containing 50 μL of 1× binding buffer, 5 μL of FITC-Annexin V solution, 5 μL of ethidium homodimer III solution, and 5 μL of Hoechst 33342 solution and incubated for 15 min at room temperature in the dark. Then, cells were washed with 1× binding buffer and analyzed by a Biorevo Fluorescence BZ-9000 all-in-one fluorescence microscope (Keyence, Osaka, Japan). Numbers of healthy cells (Hoechst 33342), apoptotic cells (Annexin V), late apoptotic or necrotic cells (Annexin V and Ethidium homodimer III), and necrotic cells (Ethidium homodimer III) were counted, as previously described.
(B) A total of approximately 100 stained cells were selected randomly in each experiment of (A) and were classified into 4 types: “alive” (blue), “apoptosis” (green), “necrosis or late apoptosis” (both green and red), and “necrosis” (red). […] Data from three independent experiments are shown as means ± standard deviations and p values were determined using Student’s test.

HER4 = target: T8, HER4 (Homo sapiens, UniProt Q15303); test: Kinase profiling assay (ADP-Glo), HER4; type: biochemical; settings: 1 h, room temperature
T8 construct: purchased Promega Corporation
T8 sequence (Q15303 26-1308): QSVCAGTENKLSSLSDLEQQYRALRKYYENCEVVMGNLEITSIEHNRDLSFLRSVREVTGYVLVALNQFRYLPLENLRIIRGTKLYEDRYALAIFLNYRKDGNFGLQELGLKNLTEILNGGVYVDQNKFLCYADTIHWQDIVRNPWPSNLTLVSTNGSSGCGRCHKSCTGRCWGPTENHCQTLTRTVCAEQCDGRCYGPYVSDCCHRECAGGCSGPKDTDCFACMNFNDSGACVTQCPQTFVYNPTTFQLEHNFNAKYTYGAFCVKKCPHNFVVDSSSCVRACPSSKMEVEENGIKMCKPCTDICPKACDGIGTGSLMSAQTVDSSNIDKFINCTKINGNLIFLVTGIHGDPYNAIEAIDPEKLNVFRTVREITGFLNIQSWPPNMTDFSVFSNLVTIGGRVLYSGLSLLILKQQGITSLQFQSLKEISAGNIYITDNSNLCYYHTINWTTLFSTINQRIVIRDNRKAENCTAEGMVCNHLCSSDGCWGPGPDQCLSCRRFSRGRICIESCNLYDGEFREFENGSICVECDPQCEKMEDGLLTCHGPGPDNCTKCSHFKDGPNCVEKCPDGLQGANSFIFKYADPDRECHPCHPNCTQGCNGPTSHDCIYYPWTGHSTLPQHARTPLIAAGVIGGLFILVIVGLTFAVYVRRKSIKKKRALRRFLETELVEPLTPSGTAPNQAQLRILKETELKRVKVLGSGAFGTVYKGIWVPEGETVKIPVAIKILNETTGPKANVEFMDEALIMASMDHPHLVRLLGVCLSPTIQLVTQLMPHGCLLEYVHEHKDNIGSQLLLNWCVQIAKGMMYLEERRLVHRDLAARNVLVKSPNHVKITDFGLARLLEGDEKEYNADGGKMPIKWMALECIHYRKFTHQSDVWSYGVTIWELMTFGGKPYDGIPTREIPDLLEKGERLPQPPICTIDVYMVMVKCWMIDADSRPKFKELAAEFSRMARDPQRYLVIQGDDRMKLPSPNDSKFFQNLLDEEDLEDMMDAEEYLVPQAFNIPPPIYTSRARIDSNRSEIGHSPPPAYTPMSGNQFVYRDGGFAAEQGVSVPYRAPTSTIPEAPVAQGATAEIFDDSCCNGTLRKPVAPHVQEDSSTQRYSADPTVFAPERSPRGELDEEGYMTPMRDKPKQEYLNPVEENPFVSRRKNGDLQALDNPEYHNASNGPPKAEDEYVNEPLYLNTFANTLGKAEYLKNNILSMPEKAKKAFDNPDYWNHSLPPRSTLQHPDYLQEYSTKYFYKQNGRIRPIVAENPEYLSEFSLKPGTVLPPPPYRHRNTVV
Protocol: as §1

InsR = target: T9, InsR (Homo sapiens, UniProt P06213); test: Kinase profiling assay (ADP-Glo), InsR; type: biochemical; settings: 1 h, room temperature
T9 construct: purchased Promega Corporation
Protocol: as §1

Work on `O=C(CSc1nnc(Cc2c[nH]c3ccccc23)o1)Nc1nc2ccccc2s1` [Compound 2a, 2-[(5-((1H-Indol-3-yl)methyl)-1,3,4-oxadiazol-2-yl)thio]-N-(benzothiazol-2-yl)acetamide] yielded an IC50 [1] of 26.2 ± 1.75 µM, an IC50 [2] of 65.1 ± 10.1 µM and an IC50 [3] greater than 300 µM. For the same compound, the IC50 [4] was 17.7 ± 3.59 µM and the IC50 [5] was 40.4 ± 7.74 µM.

`O=C(CSc1nnc(Cc2c[nH]c3ccccc23)o1)Nc1nc2ccc(Cl)cc2s1` [Compound 2b, 2-[(5-((1H-Indol-3-yl)methyl)-1,3,4-oxadiazol-2-yl)thio]-N-(6-chlorobenzothiazol-2-yl)acetamide] showed an IC50 [1] greater than 100 µM, an IC50 [2] of 37.6 ± 5.62 µM and an IC50 [5] of 60.7 ± 9.48 µM.

Work on `O=C(CSc1nnc(Cc2c[nH]c3ccccc23)o1)Nc1nc2ccc(Br)cc2s1` [Compound 2c, 2-[(5-((1H-Indol-3-yl)methyl)-1,3,4-oxadiazol-2-yl)thio]-N-(6-bromobenzothiazol-2-yl)acetamide] yielded an IC50 [1] greater than 100 µM, a melting point of 240.6 to 241.5 °C and an IC50 [2] of 48.5 ± 5.78 µM. The IC50 [5] was 24.9 ± 1.96 µM.

`Cc1ccc2nc(NC(=O)CSc3nnc(Cc4c[nH]c5ccccc45)o3)sc2c1` [Compound 2d, 2-[(5-((1H-Indol-3-yl)methyl)-1,3,4-oxadiazol-2-yl)thio]-N-(6-methylbenzothiazol-2-yl)acetamide] gave an IC50 [1] of 18.2 ± 1.19 µM, an IC50 [2] of 30.2 ± 3.12 µM and an IC50 [3] greater than 300 µM. It also gave an IC50 [4] of 21.1 ± 1.85 µM and an IC50 [5] of 36.9 ± 5.43 µM.

Work on `CCOc1ccc2nc(NC(=O)CSc3nnc(Cc4c[nH]c5ccccc45)o3)sc2c1` [Compound 2e, 2-[(5-((1H-Indol-3-yl)methyl)-1,3,4-oxadiazol-2-yl)thio]-N-(6-ethoxybenzothiazol-2-yl)acetamide] yielded an IC50 (EGFR) of 2.8 ± 0.52 µM, an IC50 [1] of 6.43 ± 0.72 µM and an IC50 (KDR) greater than 30 µM. It also gave an IC50 (PDGFRα) greater than 30 µM, an IC50 (IGF1R) greater than 30 µM and an IC50 [3] greater than 300 µM. It also gave an IC50 [4] of 6.45 ± 1.02 µM, an IC50 (PDGFRβ) of 6.16 ± 1.58 µM and an IC50 (COX-1) of 73.5 ± 2.12 µM. The IC50 (HER2) was greater than 30 µM, the IC50 [5] was 9.62 ± 1.14 µM and the “apoptosis (apoptotic cells)” value (HCT116 cells) was 28.35%. For the same compound, the “late apoptotic or necrotic effects” value (HCT116 cells) was 9.81%, the IC50 (HER4) was 8.22 ± 1.64 µM and the IC50 (InsR) was 29.1 ± 4.66 µM.

With `O=C(CSc1nnc(Cc2c[nH]c3ccccc23)o1)Nc1nc2ccc([N+](=O)[O-])cc2s1` [Compound 2f, 2-[(5-((1H-Indol-3-yl)methyl)-1,3,4-oxadiazol-2-yl)thio]-N-(6-nitrobenzothiazol-2-yl)acetamide] the IC50 [1] was greater than 100 µM, the IC50 [2] was greater than 100 µM and the IC50 [5] was greater than 100 µM.

For `O=C(CSc1nnc(Cc2c[nH]c3ccccc23)o1)Nc1nccs1` [Compound 2g, 2-[(5-((1H-Indol-3-yl)methyl)-1,3,4-oxadiazol-2-yl)thio]-N-(thiazol-2-yl)acetamide], the IC50 [1] was greater than 100 µM, the melting point was 177.4 to 178.2 °C and the IC50 [2] was greater than 100 µM. The IC50 [5] was greater than 100 µM.

In the case of `O=C(CSc1nnc(Cc2c[nH]c3ccccc23)o1)Nc1ncc([N+](=O)[O-])s1` [Compound 2h, 2-[(5-((1H-Indol-3-yl)methyl)-1,3,4-oxadiazol-2-yl)thio]-N-[5-nitrothiazol-2-yl]acetamide], the IC50 [1] is reported as greater than 100 µM, the melting point is reported as 233.9 to 234.5 °C and the IC50 [2] is reported as greater than 100 µM. It also gave an IC50 [5] greater than 100 µM.

`CCOC(=O)Cc1csc(NC(=O)CSc2nnc(Cc3c[nH]c4ccccc34)o2)n1` [Compound 2i, 2-[(5-((1H-Indol-3-yl)methyl)-1,3,4-oxadiazol-2-yl)thio]-N-[4-(ethoxycarbonylmethyl)thiazol-2-yl]acetamide] showed an IC50 [1] greater than 100 µM, a melting point of 158 to 158.6 °C and an IC50 [2] of 95.9 ± 12.4 µM. The IC50 [5] was 71.9 ± 10.3 µM.

For `C#Cc1cccc(Nc2ncnc3cc(OCCOC)c(OCCOC)cc23)c1` [Erlotinib, reference compound], the IC50 [2] was 23.8 ± 4.17 µM, the IC50 [3] was 45.7 ± 8.88 µM and the IC50 [4] was 9.47 ± 2.15 µM. For the same compound, the IC50 [5] was 19.4 ± 2.38 µM, the “apoptosis (apoptotic cells)” value (HCT116 cells) was 7.42% and the “late apoptotic or necrotic effects” value (HCT116 cells) was 10.45%.
